In ChEMBL document CHEMBL1136015, “Inhibitors of human histone deacetylase: synthesis and enzyme and cellular activity of straight chain hydroxamates” (J Med Chem, 2002):
Square brackets hold non-standard residues; d marks the D form. Peptide text beside a SMILES is read from it. Aoe = N[C@@H](CCCCCC(=O)[C@@H]1CO1)C(=O)O

What was measured:
HCT-116 [1] = test: Concentration required to inhibit the HCT116 cell growth by 50%.; assay type: functional, cell-based; details: Homo sapiens
Histone deacetylase [2] = test: Induction of p21 using Histone deacetylase inhibitors; assay type: protein assay, Homo sapiens
Histone deacetylase [3] = test: Concentration required to inhibit human Histone deacetylase (HDAC) enzyme by 50%; assay type: protein assay
T-24 = test: Concentration required to inhibit the bladder T24 cell growth by 50%,P53 status of cell line used was mutant.; details: Homo sapiens
NCI-H1299 = test: Concentration required to inhibit the lung H1299 cell growth by 50%,P53 status of cell line used was deleted.; details: Homo sapiens
SW-620 = test: Concentration required to inhibit the colon SW 620 cell growth by 50%,P53 status of cell line used was mutant-type.; assay type: functional, cell-based; details: Homo sapiens
A549 = test: Concentration required to inhibit the lung A549 cell growth by 50%,P53 status of cell line used was wild-type.; assay type: functional, cell-based; details: Homo sapiens
HCT-116 [4] = test: Concentration required to inhibit the colon HCT116 cell growth by 50%,P53 status of cell line used was wild-type.; assay type: functional, cell-based; details: Homo sapiens
[5] = Concentration required to inhibit the breast MDA-MB-435S cell growth by 50%,P53 status of cell line used was mutant-type.; assay type: functional; details: Homo sapiens
LS174T = test: Concentration required to inhibit the colon LS 174T cell growth by 50%,P53 status of cell line used was […].; assay type: functional, cell-based; details: Homo sapiens
Histone deacetylase [6] = test: Concentration required to inhibit the partially purified HDAC enzyme by 50% obtained from H1299 cell lysate; assay type: functional, cell-based, Homo sapiens
A-431 = test: Concentration required to inhibit the epidermoid A431 cell growth by 50%, P53 status of cell line used was mutant.; details: Homo sapiens

SMILES	IC50 (HCT-116 [1]) [nM]	AC50 (Histone deacetylase [2]) [µM]	IC50 (Histone deacetylase [3]) [µM]	IC50 (Histone deacetylase [6]) [µM]	further results
CC(/C=C/C(=O)NO)=C\[C@@H](C)C(=O)c1ccc(N(C)C)cc1 [TRICHOSTATIN]	13	–	–	–	–
CN(C)c1ccc(C(=O)NCCCCC(=O)NO)cc1	–	> 10	> 10	–	–
CN(C)c1ccc(C(=O)NCCCCCCC(=O)NO)cc1	210	2.1	0.046	1.62	IC50 (T-24): 3.8 µM; IC50 (NCI-H1299): 3.9 µM; IC50 (SW-620): 700 nM; IC50 (A549): 800 nM; IC50 (HCT-116 [4]): 200 nM; IC50 [5]: 1300 nM; IC50 (LS174T): 1500 nM; IC50 (A-431): 2300 nM
O=C(CCCCCNC(=O)c1ccc(OCc2ccccc2)cc1)NO	–	> 10	0.22	–	–
O=C(CCCCCCC(=O)Nc1ccccn1)NO	2000	–	–	–	–
O=C(CCCCCN1C(=O)c2ccccc2C1=O)NO	–	7.5	0.515	–	–
CN(C)c1ccc(C(=O)NCCCCCCCC(=O)NO)cc1	500	1.6	0.145	2.18	–
O=C(CCCCCCC(=O)Nc1ccncc1)NO	5400	8.9	0.306	> 10	–
O=C(CCCCCNC(=O)c1ccc([N+](=O)[O-])cc1)NO	–	> 10	1.556	–	–
O=C(CCCCCNC(=O)c1ccc(Cl)cc1)NO	–	> 10	0.369	–	–
O=C(CCCCCCNC(=O)c1ccccc1)NO	1040	5.7	0.568	> 10	–
O=C(CCCCCNC(=O)c1ccc(-c2ccccc2)cc1)NO	–	> 10	0.265	–	–
COc1ccc(NC(=O)CCCCCCC(=O)NO)cc1	> 10000	2.4	0.279	> 10	–
O=C(O)CCCCCCC(=O)c1ccccc1	1720	4.1	0.27	> 10	–
O=C1N[C@@H](Cc2ccccc2)C(=O)N2CCC[C@@H]2C(=O)N[C@@H](CCCCCC(=O)[C@@H]2CO2)C(=O)N[C@H]1Cc1ccccc1 [TRAPOXIN B] (cyclo(FF[dP][Aoe]))	2	–	–	–	–
NNC(=O)CCCCCNC(=O)c1ccccc1	–	> 10	> 10	–	–
CONC(=O)CCCCCNC(=O)c1ccccc1	–	> 10	> 10	–	–
O=C(CCCCCCC(=O)Nc1cccnc1)NO [PYROXAMIDE]	6500	–	–	–	–
CN(CCCCCC(=O)NO)C(=O)c1ccc(N(C)C)cc1	–	> 10	0.443	–	–
